Data on 21 compounds can be found in ChEMBL document CHEMBL3393055, “6,6-Fused heterocyclic ureas as highly potent TRPV1 antagonists” (Bioorg Med Chem Lett, 2015).

For test [1], the target named is T1, Transient receptor potential cation channel subfamily V member 1 (Homo sapiens, UniProt Q8NER1). Put plainly: Antagonist activity at human TRPV1 assessed as inhibition of capsaicin-induced effect by FLIPR assay.
For test [2], the target named is T1, Transient receptor potential cation channel subfamily V member 1. Put plainly: Antagonist activity at human TRPV1 assessed as inhibition of capsaicin-induced effect at 1 uM by FLIPR assay.
The target is the same in test [3]. Put plainly: Antagonist activity at human TRPV1 assessed as inhibition of 45 degC heat-induced effect at 1 uM by FLIPR assay.
Test [4] shares this target. Put plainly: Antagonist activity at human TRPV1 assessed as inhibition of NADA-induced effect at 1 uM by FLIPR assay.
The target is the same in test [5]. Put plainly: Antagonist activity at human TRPV1 assessed as inhibition of pH-induced effect at 1 uM by FLIPR assay.
The subject of test [6] is Mus musculus. Put plainly: Analgesic activity in formalin-induced mouse pain model at 10 mg/kg, po. The class given is functional.
For test [7], the system named is Mus musculus. Put plainly: Analgesic activity in formalin-induced mouse pain model at 0.3 mg/kg, po. It is filed as functional.

T1 sequence (Q8NER1 whole entry): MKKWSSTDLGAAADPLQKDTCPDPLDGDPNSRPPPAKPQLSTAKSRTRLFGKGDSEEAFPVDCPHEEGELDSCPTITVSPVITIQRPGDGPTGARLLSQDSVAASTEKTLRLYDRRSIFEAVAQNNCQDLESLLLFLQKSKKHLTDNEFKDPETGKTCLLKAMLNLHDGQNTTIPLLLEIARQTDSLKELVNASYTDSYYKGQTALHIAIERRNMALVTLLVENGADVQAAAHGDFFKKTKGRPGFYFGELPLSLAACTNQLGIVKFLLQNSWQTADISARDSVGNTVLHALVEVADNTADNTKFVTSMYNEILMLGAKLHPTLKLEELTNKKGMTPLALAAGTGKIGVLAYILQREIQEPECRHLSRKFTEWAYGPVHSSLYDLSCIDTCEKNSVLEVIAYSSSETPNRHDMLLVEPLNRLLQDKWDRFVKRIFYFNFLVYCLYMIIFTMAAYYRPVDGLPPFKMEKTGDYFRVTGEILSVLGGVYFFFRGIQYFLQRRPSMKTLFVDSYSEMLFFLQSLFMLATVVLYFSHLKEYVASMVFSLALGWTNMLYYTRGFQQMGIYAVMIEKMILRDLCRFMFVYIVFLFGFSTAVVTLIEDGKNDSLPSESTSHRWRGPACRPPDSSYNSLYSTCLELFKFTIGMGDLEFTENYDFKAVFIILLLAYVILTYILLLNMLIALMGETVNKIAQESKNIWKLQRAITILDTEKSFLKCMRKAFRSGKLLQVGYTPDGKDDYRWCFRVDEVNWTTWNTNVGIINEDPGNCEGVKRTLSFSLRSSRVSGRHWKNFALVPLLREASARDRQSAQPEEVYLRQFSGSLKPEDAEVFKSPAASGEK

For orientation: Ki means a measure of affinity in units of concentration, obtained from inhibition or displacement. Turning to `CC1CCN(c2nc(C(F)(F)F)ccc2CNC(=O)Nc2cccc3nccnc23)CC1`, the Ki in test [1] (read-out: Ki) turned out to be 48.1 nM.

One may read the inhibition as the change of the read-out against control, counted positive when it falls. For `CC1CCN(c2nc(C(F)(F)F)ccc2CNC(=O)Nc2ccc3ncccc3c2)CC1`, in test [2], the inhibition was found to be 40%.

Usually IC50 stands for the midpoint of a concentration-inhibition curve. Consider `CC1CCN(c2nc(C(F)(F)F)ccc2CNC(=O)Nc2cccc3cnccc23)CC1`, for which the Ki came out at 0.2 nM in test [1] (read-out: Ki) and 0.02 nM in test [4]. Further, the IC50 is 0.55 nM in test [3] and “Not Active” in test [5]. In addition, the MPE with Mus musculus [6] is given as 73%; in the test on Mus musculus [7], 18%.

Regarding `CC1CCN(c2nc(C(F)(F)F)ccc2CNC(=O)Nc2cccc3ncccc23)CC1`, the Ki in test [1] (read-out: Ki) was 0.7 nM.

Consider `CC1CCN(c2nc(C(F)(F)F)ccc2CNC(=O)Nc2cccc3ccncc23)CC1`, for which the Ki in test [1] (read-out: Ki) amounted to 0.4 nM.

Turning to `CC1CCN(c2nc(C(F)(F)F)ccc2CNC(=O)Nc2cccc3cccnc23)CC1`, in test [1] (read-out: Ki), the Ki stood at 91.6 nM.

Regarding `CC1CCN(c2nc(C(F)(F)F)ccc2CNC(=O)Nc2ccc3cnncc3c2)CC1`, the Ki in test [1] (read-out: Ki) was found to be 8.9 nM.

With `CC1CCN(c2nc(C(F)(F)F)ccc2CNC(=O)Nc2ccc3cncnc3c2)CC1`, the Ki in test [1] (read-out: Ki) was 7.8 nM.

With `CC1CCN(c2nc(C(F)(F)F)ccc2CNC(=O)Nc2cncc3ccccc23)CC1`, the inhibitory constant (Ki) in test [1] (read-out: Ki) worked out at 1.8 nM.

`CC1CCN(c2nc(C(F)(F)F)ccc2CNC(=O)Nc2cnc3ccccc3c2)CC1`: in test [1] (read-out: Ki), the Ki was found to be 9.5 nM.

`CC1CCN(c2nc(C(F)(F)F)ccc2CNC(=O)Nc2ccc3cnccc3c2)CC1`: the Ki in test [1] (read-out: Ki) is 7.2 nM.

Take `CC1CCN(c2nc(C(F)(F)F)ccc2CNC(=O)Nc2ccc3ccncc3c2)CC1`: in test [1] (read-out: Ki), the Ki turned out to be 8.4 nM.

On to `CC1CCN(c2nc(C(F)(F)F)ccc2CNC(=O)Nc2ccnc3ccccc23)CC1`, for which, in test [1], the inhibition constant (Ki) result is “Agonist”.

Consider `CC1CCN(c2nc(C(F)(F)F)ccc2CNC(=O)Nc2ccc3ccccc3n2)CC1`, for which, in test [1], the Ki entry is on record as “Not Active”.

As to `O=C(NCc1ccc(C(F)(F)F)cc1)Nc1cccc2cnccc12`, the Ki in test [1] (read-out: Ki) was determined as 18.3 nM.

On to `CC1CCN(c2nc(C(F)(F)F)ccc2CNC(=O)Nc2cc3ccccc3cn2)CC1`, for which, in test [2], the inhibition came out at 10%.

`CC1CCN(c2nc(C(F)(F)F)ccc2CNC(=O)Nc2ccc3ncncc3c2)CC1`: the Ki result in test [1] is “Agonist”.

As for `CC1CCN(c2nc(C(F)(F)F)ccc2CNC(=O)Nc2ccc3cccnc3c2)CC1`, the Ki in test [1] (read-out: Ki) came to 7.1 nM.

With `CC(C)(C)c1ccc(CNC(=O)Nc2cccc3cnccc23)cc1`, the Ki in test [1] (read-out: Ki) worked out at 13.8 nM.

Take `CC1CCN(c2nc(C(F)(F)F)ccc2CNC(=O)Nc2nccc3cccnc23)CC1`: in test [1], the inhibition constant Ki result is listed as “Not Active”.

For the compound `CC1CCN(c2nc(C(F)(F)F)ccc2CNC(=O)Nc2nccc3ccccc23)CC1`, in test [1], the Ki result is on record as “Not Active”.
